Data taken from the NIST ThermoML archive (doi:10.1016/j.tca.2015.01.003).
Numbers after ± are expanded uncertainties.

Assay: wn = mass fraction of the nth substance listed
Conditions: 288.15 K, 100 kPa, Liquid, Vibrating tube method

mass density (w1 = 0.2601) [kg/m3] | mass density (w1 = 0.0924) [kg/m3] | Compound
1237.48 ± 1.6 |  | O=S(=O)([O-])[O-].[Li+].[Li+] [lithium sulfate] + O
 | 1077.03 ± 1.2 | O=S(=O)([O-])[O-].[K+].[K+] [potassium sulfate] + O
